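Dose response: 5 concentrations. Exposure: 48 h. Format: 96-well plates. Endpoint: linear interpolation; highest concentration if not reached. GI50 = concentration required for 50% inhibition of growth.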 The source made the active and inactive calls. Rule as the data show it: active = GI50 up to about 1.1 µM and inactive = higher.
What was measured:
Test in all cases: NCI anticancer screen, dose series, 48 h
A549 = system: A549
ACHN = system: ACHN
CAKI-1 = system: CAKI-1
EKVX = system: EKVX
KM-20L2 = system: KM-20L2
LOX IMVI = system: LOX IMVI
MOLT-4 = system: MOLT-4
Malme-3M = system: Malme-3M
NCI-H226 = system: NCI-H226
OVCAR-5 = system: OVCAR-5
SF-268 = system: SF-268
SF-295 = system: SF-295
SF-539 = system: SF-539
SW-620 = system: SW-620
UACC-257 = system: UACC-257
UACC-62 = system: UACC-62
UO-31 = system: UO-31
NCI-H522 = system: NCI-H522
BT-549 = system: BT-549
MDA-MB-435 = system: MDA-MB-435

Measured: GI50

CCOC(=O)c1cnc2sc3ccc4ccccc4c3n2c1=O
inactive: A549 53.3 µM | ACHN 33.1 µM | CAKI-1 29.5 µM | EKVX 74 µM | KM-20L2 72.1 µM | LOX IMVI 47.9 µM | MOLT-4 28.1 µM | Malme-3M 63.2 µM | NCI-H226 30.1 µM | OVCAR-5 > 100 µM | SF-268 92.7 µM | SF-295 58.9 µM | SF-539 30.1 µM | SW-620 > 100 µM | UACC-257 87.9 µM | UACC-62 77.6 µM | UO-31 23.9 µM

N#CC1(C#N)C(c2ccc(C3C(C#N)(C#N)C3(C#N)C#N)cc2)C1(C#N)C#N
inactive: A549 > 100 µM | ACHN > 100 µM | CAKI-1 > 100 µM | EKVX > 100 µM | KM-20L2 > 100 µM | LOX IMVI > 100 µM | MOLT-4 > 100 µM | Malme-3M > 100 µM | NCI-H522 58.3 µM | OVCAR-5 > 100 µM | SF-268 > 100 µM | SF-295 > 100 µM | SF-539 > 100 µM | SW-620 > 100 µM | UACC-257 > 100 µM | UACC-62 > 100 µM | UO-31 > 100 µM

CC1=C2[C@H](c3ccccc3)C3C=CC2(c2ccccc23)N(C(=O)C(c2ccccc2)c2ccccc2)C1=O (some centres undefined)
inactive: A549 > 100 µM | ACHN > 100 µM | CAKI-1 > 100 µM | EKVX > 100 µM | KM-20L2 > 100 µM | LOX IMVI > 100 µM | MOLT-4 > 100 µM | Malme-3M > 100 µM | OVCAR-5 > 100 µM | SF-268 > 100 µM | SF-295 > 100 µM | SF-539 > 100 µM | SW-620 > 100 µM | UACC-257 > 100 µM | UACC-62 > 100 µM | UO-31 > 100 µM

CC1=CC(=O)N2[C@H](OC[C@@H]2C(C)C)O1
inactive: A549 > 100 µM | ACHN > 100 µM | CAKI-1 > 100 µM | EKVX > 10 µM | KM-20L2 > 100 µM | MOLT-4 > 100 µM | Malme-3M > 100 µM | NCI-H226 > 100 µM | NCI-H522 > 100 µM | SF-268 > 100 µM | SF-295 > 100 µM | SF-539 > 100 µM | SW-620 > 100 µM | UACC-257 > 100 µM | UACC-62 > 100 µM | UO-31 > 100 µM

O=C1OC(c2ccccc2)=N/C1=C\c1c(O)cc(O)cc1O
inactive: A549 > 100 µM | ACHN 53.2 µM | CAKI-1 > 100 µM | EKVX > 100 µM | KM-20L2 > 100 µM | LOX IMVI 78.3 µM | MOLT-4 > 100 µM | Malme-3M > 100 µM | NCI-H522 47.2 µM | OVCAR-5 > 100 µM | SF-268 99.5 µM | SF-539 > 100 µM | SW-620 > 100 µM | UACC-257 > 100 µM | UACC-62 27.9 µM | UO-31 > 100 µM

C=C1C(=O)OC2C3C(=C)[C@@H](OC(C)=O)CC3C(C)=CC(OC(=O)C(C)(OC(C)=O)C(C)OC(C)=O)[C@@H]12 (some centres undefined)
inactive: A549 24.3 µM | ACHN 13.7 µM | BT-549 18.5 µM | CAKI-1 10.6 µM | EKVX 16.6 µM | LOX IMVI 13.4 µM | MDA-MB-435 13.5 µM | MOLT-4 6.56 µM | Malme-3M 13.6 µM | NCI-H226 23.8 µM | NCI-H522 2.52 µM | OVCAR-5 21.9 µM | SF-268 21.7 µM | SF-295 61.2 µM | SF-539 17.4 µM | SW-620 9.33 µM | UACC-257 14.9 µM | UACC-62 13.3 µM | UO-31 16.4 µM

CCOC(=O)NC(Nc1ccc(OC(F)(F)F)cc1)(C(F)(F)F)C(F)(F)F
inactive: A549 > 100 µM | ACHN > 100 µM | BT-549 > 100 µM | CAKI-1 > 100 µM | EKVX > 100 µM | LOX IMVI > 100 µM | MDA-MB-435 > 100 µM | MOLT-4 > 100 µM | Malme-3M > 100 µM | NCI-H226 > 100 µM | NCI-H522 > 100 µM | OVCAR-5 > 100 µM | SF-268 > 100 µM | SF-295 > 100 µM | SF-539 > 100 µM | SW-620 > 100 µM | UACC-257 > 100 µM | UACC-62 > 100 µM | UO-31 > 100 µM

N=C(N)SCc1cc(Cl)cc(Cl)c1O
inactive: A549 20.7 µM | ACHN 19.5 µM | BT-549 18.7 µM | CAKI-1 18.6 µM | EKVX 15.2 µM | LOX IMVI 18.5 µM | MDA-MB-435 19.7 µM | MOLT-4 24.4 µM | Malme-3M 21.6 µM | NCI-H226 20.3 µM | NCI-H522 15.9 µM | OVCAR-5 16.3 µM | SF-268 21.8 µM | SF-295 25.5 µM | SF-539 3.58 µM | SW-620 20.7 µM | UACC-257 16.9 µM | UACC-62 17.3 µM | UO-31 15.5 µM

From ChEMBL document CHEMBL1201862, “PubChem BioAssay data set” (2004)
